According to PubChem BioAssay AID248 (DTP/NCI, 2004):
Several values for one entry are separate records, joined by “and”; a condition that tells them apart may be missing. Identical values can stand only once. Inconclusive results and toxic doses are left out. Cut-off read from the data, not from the text of the source: active = T/C of 150% or more; inactive = T/C below 125%.

Tested on: L1210 leukemia ip in BDF1 mice, survival T/C
Assay: NCI In Vivo Anticancer Drug Screen. Data for tumor model L1210 Leukemia (intraperitoneal) in B6D2F1 (BDF1) mice
Conditions: endpoint: mean survival time, higher = longer survival
Outline: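 Ratio derived from survival: compound-dosed mice over vehicle-dosed mice, all bearing a transplantable tumor.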

[1] = dose: 50.0 mg/kg/injection, schedule: Q01DX009 (ip), vehicle: saline with Tween-80
[2] = dose: 100.0 mg/kg/injection, schedule: Q01DX009 (ip), vehicle: saline with Tween-80
[3] = dose: 100.0 mg/kg/injection, schedule: Q04DX003 (ip), vehicle: saline with Tween-80
[4] = dose: 200.0 mg/kg/injection, schedule: Q01DX009 (ip), vehicle: saline with Tween-80
[5] = dose: 200.0 mg/kg/injection, schedule: Q04DX003 (ip), vehicle: saline with Tween-80
[6] = dose: 100.0 mg/kg/injection, schedule: Q04DX002 (ip), vehicle: saline with Tween-80
[7] = dose: 200.0 mg/kg/injection, schedule: Q04DX002 (ip), vehicle: saline with Tween-80
[8] = dose: 100.0 mg/kg/injection, schedule: Q01DX009 (ip), vehicle: Klucel (hydroxypropylcellulose) (HPC)
[9] = dose: 100.0 mg/kg/injection, schedule: Q04DX003 (ip), vehicle: Klucel (hydroxypropylcellulose) (HPC)
[10] = dose: 200.0 mg/kg/injection, schedule: Q01DX009 (ip), vehicle: Klucel (hydroxypropylcellulose) (HPC)
[11] = dose: 200.0 mg/kg/injection, schedule: Q04DX003 (ip), vehicle: Klucel (hydroxypropylcellulose) (HPC)

Measured: T/C

Nc1ccnc(Cl)c1N
inactive: [1] 111 % of control | dose: 50.0 mg/kg/injection, schedule: Q04DX003 (ip), vehicle: saline with Tween-80 97 % of control | [2] 111 % of control | [3] 101 % of control | [4] 109 % of control | [5] 95 % of control

COc1ccc(COc2ccc([N+](=O)[O-])cc2)cc1
inactive: dose: 50.0 mg/kg/injection, schedule: Q04DX002 (ip), vehicle: saline with Tween-80 101 % of control | [6] 104 % of control | [7] 97 % of control

O=c1nc2n(CC(O)C(O)C(O)CO)c3ccccc3cc-2c(=O)[nH]1 (centres undefined)
inactive: dose: 100.0 mg/kg/injection, schedule: Q01DX001 (ip), vehicle: saline 90 % of control | dose: 200.0 mg/kg/injection, schedule: Q01DX001 (ip), vehicle: saline 90 % of control | dose: 400.0 mg/kg/injection, schedule: Q01DX001 (ip), vehicle: saline 93 % of control

C1=CC2C3CCC(C3)C2C1 (centres undefined)
inactive: [1] 96 % of control | [2] 102 % of control and 88 % of control | [3] 98 % of control and 101 % of control | [4] 94 % of control and 108 % of control | [5] 93 % of control and 101 % of control | dose: 400.0 mg/kg/injection, schedule: Q01DX009 (ip), vehicle: saline with Tween-80 95 % of control | dose: 400.0 mg/kg/injection, schedule: Q04DX003 (ip), vehicle: saline with Tween-80 93 % of control and 96 % of control

CCCCCCCCCCCC[n+]1ccc(C(N)=O)cc1
inactive: dose: 12.5 mg/kg/injection, schedule: Q01DX001 (ip), vehicle: saline 91 % of control | dose: 12.5 mg/kg/injection, schedule: Q04DX003 (ip), vehicle: saline 96 % of control | dose: 25.0 mg/kg/injection, schedule: Q01DX001 (ip), vehicle: saline 100 % of control | dose: 25.0 mg/kg/injection, schedule: Q04DX003 (ip), vehicle: saline 87 % of control | dose: 50.0 mg/kg/injection, schedule: Q01DX001 (ip), vehicle: saline 86 % of control | dose: 50.0 mg/kg/injection, schedule: Q04DX003 (ip), vehicle: saline 94 % of control

O=C(O)c1ccc2c([N+](=O)[O-])cccc2n1
inactive: [8] 100 % of control | [9] 96 % of control | [10] 97 % of control | [11] 107 % of control | dose: 400.0 mg/kg/injection, schedule: Q04DX003 (ip), vehicle: Klucel (hydroxypropylcellulose) (HPC) 93 % of control

O=C(O)CCCCCN1C(=O)C2=C(CCCC2)C1=O
inactive: dose: 75.0 mg/kg/injection, schedule: Q04DX003 (ip), vehicle: saline 98 % of control | dose: 150.0 mg/kg/injection, schedule: Q04DX003 (ip), vehicle: saline 103 % of control | dose: 300.0 mg/kg/injection, schedule: Q04DX003 (ip), vehicle: saline 93 % of control

CCOc1ccc(Nc2cccc(O)c2)cc1
inactive: [1] 95 % of control | [2] 103 % of control | [4] 95 % of control

CCC1=C/C(=C/c2ccc([N+](=O)[O-])cc2)C(=O)S1
inactive: dose: 100.0 mg/kg/injection, schedule: Q01DX001 (ip), vehicle: saline with Tween-80 87 % of control | dose: 200.0 mg/kg/injection, schedule: Q01DX001 (ip), vehicle: saline with Tween-80 87 % of control | dose: 400.0 mg/kg/injection, schedule: Q01DX001 (ip), vehicle: saline with Tween-80 87 % of control

Cc1nc2ccccc2n1C
inactive: [2] 107 % of control

BrC1=C(Br)C(Br)(Br)C(Br)=C1Br
inactive: dose: 10.0 mg/kg/injection, schedule: Q01DX001 (ip), vehicle: saline 101 % of control | dose: 20.0 mg/kg/injection, schedule: Q01DX001 (ip), vehicle: saline 98 % of control

O=C(/C=C/c1ccc([N+](=O)[O-])s1)c1cccc([N+](=O)[O-])c1
inactive: dose: 100.0 mg/kg/injection, schedule: Q04DX002 (ip), vehicle: Klucel (hydroxypropylcellulose) (HPC) 91 % of control | dose: 200.0 mg/kg/injection, schedule: Q04DX002 (ip), vehicle: Klucel (hydroxypropylcellulose) (HPC) 100 % of control | dose: 400.0 mg/kg/injection, schedule: Q04DX002 (ip), vehicle: Klucel (hydroxypropylcellulose) (HPC) 100 % of control

Nc1nc([Se])c2cc[nH]c2n1
inactive: dose: 12.5 mg/kg/injection, schedule: Q01DX009 (ip), vehicle: water 107 % of control | dose: 25.0 mg/kg/injection, schedule: Q01DX009 (ip), vehicle: water 102 % of control | dose: 25.0 mg/kg/injection, schedule: Q04DX003 (ip), vehicle: water 97 % of control | dose: 50.0 mg/kg/injection, schedule: Q01DX009 (ip), vehicle: water 104 % of control | dose: 50.0 mg/kg/injection, schedule: Q04DX003 (ip), vehicle: water 102 % of control | dose: 100.0 mg/kg/injection, schedule: Q04DX003 (ip), vehicle: water 94 % of control and 95 % of control

c1ccc(Cc2[nH]c3ccccc3c2-c2ccccc2)cc1
inactive: [2] 93 % of control | [6] 109 % of control | [4] 87 % of control | [7] 100 % of control | dose: 400.0 mg/kg/injection, schedule: Q04DX002 (ip), vehicle: saline with Tween-80 90 % of control

COC1CC(OC(=O)c2ccc([N+](=O)[O-])cc2)C(OC(=O)c2ccc([N+](=O)[O-])cc2)C(C)O1 (centres undefined)
inactive: dose: 100.0 mg/kg/injection, schedule: Q01DX001 (ip), vehicle: carboxymethylcellulose (CMC) 93 % of control | dose: 200.0 mg/kg/injection, schedule: Q01DX001 (ip), vehicle: carboxymethylcellulose (CMC) 102 % of control | dose: 400.0 mg/kg/injection, schedule: Q01DX001 (ip), vehicle: carboxymethylcellulose (CMC) 88 % of control

CSc1cnnc2ccccc12
inactive: dose: 25.0 mg/kg/injection, schedule: Q01DX009 (ip), vehicle: Klucel (hydroxypropylcellulose) (HPC) 110 % of control | dose: 50.0 mg/kg/injection, schedule: Q01DX009 (ip), vehicle: Klucel (hydroxypropylcellulose) (HPC) 115 % of control

CCN(CC)CCC(=O)OC(c1ccccc1)C1(O)CCSC1 (centres undefined)
inactive: [9] 106 % of control | [11] 96 % of control

CCP(c1ccccc1)c1ccccc1
inactive: dose: 75.0 mg/kg/injection, schedule: Q01DX009 (ip), vehicle: saline sonified 101 % of control | dose: 100.0 mg/kg/injection, schedule: Q01DX001 (ip), vehicle: saline sonified 92 % of control | dose: 150.0 mg/kg/injection, schedule: Q01DX009 (ip), vehicle: saline sonified 94 % of control | dose: 200.0 mg/kg/injection, schedule: Q01DX001 (ip), vehicle: saline sonified 97 % of control | dose: 300.0 mg/kg/injection, schedule: Q01DX009 (ip), vehicle: saline sonified 106 % of control | dose: 400.0 mg/kg/injection, schedule: Q01DX001 (ip), vehicle: saline sonified 103 % of control

CC(=O)N1C(=O)c2ccccc2C1=O
inactive: dose: 100.0 mg/kg/injection, schedule: Q01DX001 (ip), vehicle: Klucel (hydroxypropylcellulose) (HPC) 95 % of control | [8] 93 % of control | dose: 200.0 mg/kg/injection, schedule: Q01DX001 (ip), vehicle: Klucel (hydroxypropylcellulose) (HPC) 92 % of control | [10] 93 % of control | dose: 400.0 mg/kg/injection, schedule: Q01DX001 (ip), vehicle: Klucel (hydroxypropylcellulose) (HPC) 92 % of control | dose: 400.0 mg/kg/injection, schedule: Q01DX009 (ip), vehicle: Klucel (hydroxypropylcellulose) (HPC) 90 % of control

NC(N)=NNC=NCCc1ccc(O)cc1
inactive: dose: 15.0 mg/kg/injection, schedule: Q01DX Z (ip), vehicle: carboxymethylcellulose (CMC) 107 % of control | dose: 30.0 mg/kg/injection, schedule: Q01DX Z (ip), vehicle: carboxymethylcellulose (CMC) 98 % of control | dose: 60.0 mg/kg/injection, schedule: Q01DX Z (ip), vehicle: carboxymethylcellulose (CMC) 101 % of control | dose: 120.0 mg/kg/injection, schedule: Q01DX Z (ip), vehicle: carboxymethylcellulose (CMC) 103 % of control
